Test results from ChEMBL document CHEMBL1201862, “PubChem BioAssay data set” (2004).
Each block holds one molecule with its values, some of them ahead of it. Active and inactive are the calls of the source.

What was measured:
[1] = reduction of Shn3 3'UTR-driven luciferase in osteoblasts – cell-based, Clone20 osteoblasts, firefly luciferase, cherry-picked, dose response (AID 624132); type: functional;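 also: firefly luciferase luminescence from reporter carrying the Shn3 3'UTR in osteoblasts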
[2] = loss of viability in HepG2 cells – cell-based, CellTiter-Glo, cherry-picked, cytotoxicity control for Shn3 inhibitor project, dose response (AID 624134); type: functional
[3] = non-specific 3'UTR reporter inhibition in Clone20-Shn3RL – cell-based, Renilla luciferase, cherry-picked, counter-screen for Shn3 inhibitor project, dose response (AID 624133); type: functional
[4] = viability loss in THP-1 monocytes – THP-1 cells, cytotoxicity control for Vif-APOBEC3G degradation inhibitor project, dose response (AID 1117359); type: functional; conditions: THP-1
[5] = target: T1, Estrogen receptor beta (Homo sapiens, UniProt Q92731);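 also: recombinant ER-beta bound to coactivator SRC1 peptide in presence of estradiol agonist; inhibitors block coactivator peptide binding and lower the FRET signal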
[6] = target: T1, Estrogen receptor beta; assay: blockers of SRC-3 recruitment to ERβ – biochemical, ELISA, streptavidin-HRP readout, orthogonal assay, confirmation (AID 1060)
[7] = target: Glyceraldehyde-3-phosphate dehydrogenase (Homo sapiens, UniProt P04406)
[8] = target: T2, Carboxy-terminal domain RNA polymerase II polypeptide A small phosphatase 1 (Homo sapiens, UniProt Q9GZU7); assay: CTDSP1 inhibitors, concentration-response, biochemical, absorbance readout, ultra-high-throughput screen actives (AID 540297); type: functional
T2 sequence (Q9GZU7 whole entry): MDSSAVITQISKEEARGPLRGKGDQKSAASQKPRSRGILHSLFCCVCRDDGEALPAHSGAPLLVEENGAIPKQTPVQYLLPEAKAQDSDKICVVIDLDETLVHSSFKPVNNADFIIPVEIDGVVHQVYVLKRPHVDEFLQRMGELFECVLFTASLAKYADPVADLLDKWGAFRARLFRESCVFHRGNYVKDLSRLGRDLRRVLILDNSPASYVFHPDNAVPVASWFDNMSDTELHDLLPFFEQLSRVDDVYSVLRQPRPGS

[9] = tested on: HEK293; assay: EBV LMP1 TES2 canonical NF-kB signalling blockers – cell-based, HEK293, luciferase, cherry-pick, dose response (AID 588343); type: functional; conditions: Homo sapiens

T1 sequence (Q92731 whole entry): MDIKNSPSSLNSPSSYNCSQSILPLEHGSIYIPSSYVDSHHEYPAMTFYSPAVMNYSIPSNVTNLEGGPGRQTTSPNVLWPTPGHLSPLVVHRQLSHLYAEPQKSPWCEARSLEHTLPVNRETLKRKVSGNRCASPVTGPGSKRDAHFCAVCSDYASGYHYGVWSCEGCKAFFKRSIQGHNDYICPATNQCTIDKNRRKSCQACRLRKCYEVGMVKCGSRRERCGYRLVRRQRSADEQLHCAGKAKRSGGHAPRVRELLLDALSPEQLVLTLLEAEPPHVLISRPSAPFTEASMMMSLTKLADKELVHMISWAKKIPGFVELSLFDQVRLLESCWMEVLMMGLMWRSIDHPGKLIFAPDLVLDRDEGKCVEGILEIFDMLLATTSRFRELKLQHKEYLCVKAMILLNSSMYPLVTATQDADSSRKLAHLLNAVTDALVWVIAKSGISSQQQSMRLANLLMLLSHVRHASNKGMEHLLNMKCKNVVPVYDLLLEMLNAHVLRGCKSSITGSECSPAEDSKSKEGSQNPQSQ
Sequence of Glyceraldehyde-3-phosphate dehydrogenase (P04406 whole entry, the tested form may be a part): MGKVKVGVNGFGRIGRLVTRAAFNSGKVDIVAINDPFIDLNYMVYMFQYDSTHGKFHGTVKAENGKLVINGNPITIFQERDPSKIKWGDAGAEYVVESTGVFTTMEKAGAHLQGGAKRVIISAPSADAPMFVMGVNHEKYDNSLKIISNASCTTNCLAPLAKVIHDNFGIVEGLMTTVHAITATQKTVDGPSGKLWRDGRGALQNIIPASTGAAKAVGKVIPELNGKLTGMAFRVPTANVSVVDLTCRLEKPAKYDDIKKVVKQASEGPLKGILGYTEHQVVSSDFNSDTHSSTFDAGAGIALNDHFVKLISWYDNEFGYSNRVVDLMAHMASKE

SMILES: O=C1CSc2ccc(C(=O)Nc3cccc(S(=O)(=O)Nc4ccc(Br)cc4)c3)cc2N1
- AC50 [1]: 3.08 µM (active)
- AC50 [2]: 45.6 µM (active)
- AC50 [3]: 8.81 µM (active)

SMILES: Cc1nc2ccc(NS(=O)(=O)c3ccc4c(c3)OCCO4)cc2s1
- AC50 [1]: 0.635 µM (active)
- AC50 [2]: 4.15 µM (active)
- AC50 [3]: > 70 µM (inactive)

SMILES: COc1ccc(S(=O)(=O)N2CCN(C(=O)c3cc(-c4ccccc4OC)[nH]n3)CC2)cc1
- CC50 [4]: > 40 µM (active)

- IC50 [5]: 9.84 µM (active)
- IC50 [6]: 0.0637 µM (not active)
SMILES: CCOc1ccc2nc(NC(=O)CCC(=O)c3cccs3)sc2c1

- IC50 [7]: > 50 µM (inconclusive)
SMILES: COc1cccc(N2C(=O)C(Cl)=C(N3CCN(Cc4ccccc4)CC3)C2=O)c1

- IC50 [8]: 1.17 µM (active)
SMILES: CC1C=CC=CC=CC=CC=CC=CC=CC(OC2OC(C)C(O)C(N)C2O)CC2OC(O)(CC(O)CC(O)C(O)CCC(O)CC(O)CC(=O)OC(C)C(C)C1O)CC(O)C2C(=O)O (stereo not drawn)
- CC50 [4]: 3.14 µM (active)

SMILES: Cc1cc(C(=O)COC(=O)c2cccc(NS(C)(=O)=O)c2)c(C)n1CC1CCCO1 (stereo not drawn)
- AC50 [9]: 3.15 µM (active)
